Values belong to the compound of their own block, whether it stands above or below them.
Experiments:
[1] = system: NF-κB localization in MDA-MB-231 cells; assay: Immunofluorescence, NF-κB localization; assay type: cell-based, human; conditions: 15 µM
Method: (§1) After a PBS wash, cells were fixed using cold methanol (15 min at −20 °C) and incubated overnight at 4 °C with the primary antibodies raised against NF-κB, iNOS, TNF-α, and COX-1 and 2 (Santa Cruz Biotechnology Inc., Santa Cruz, CA, USA) diluted in BSA 2%, as previously described. […] DAPI (Sigma Aldrich, Milan, Italy) 0.2 µg/mL was added for 10 min for nuclei counterstaining. A fluorescence microscope (Leica DM 6000) was used for visualizing images, and LAS-X software 3.5.7.23225 was used for acquisition and processing.

[2] = target: T1, human topoisomerase I (hTopoI) (Homo sapiens, UniProt P11387); assay: Human topoisomerase I relaxation assay; assay type: biochemical; conditions: 1 µM, supercoiled pHOT1 DNA
T1 construct: purchased TopoGEN, Port Orange, FL, USA
T1 sequence (P11387 1-765): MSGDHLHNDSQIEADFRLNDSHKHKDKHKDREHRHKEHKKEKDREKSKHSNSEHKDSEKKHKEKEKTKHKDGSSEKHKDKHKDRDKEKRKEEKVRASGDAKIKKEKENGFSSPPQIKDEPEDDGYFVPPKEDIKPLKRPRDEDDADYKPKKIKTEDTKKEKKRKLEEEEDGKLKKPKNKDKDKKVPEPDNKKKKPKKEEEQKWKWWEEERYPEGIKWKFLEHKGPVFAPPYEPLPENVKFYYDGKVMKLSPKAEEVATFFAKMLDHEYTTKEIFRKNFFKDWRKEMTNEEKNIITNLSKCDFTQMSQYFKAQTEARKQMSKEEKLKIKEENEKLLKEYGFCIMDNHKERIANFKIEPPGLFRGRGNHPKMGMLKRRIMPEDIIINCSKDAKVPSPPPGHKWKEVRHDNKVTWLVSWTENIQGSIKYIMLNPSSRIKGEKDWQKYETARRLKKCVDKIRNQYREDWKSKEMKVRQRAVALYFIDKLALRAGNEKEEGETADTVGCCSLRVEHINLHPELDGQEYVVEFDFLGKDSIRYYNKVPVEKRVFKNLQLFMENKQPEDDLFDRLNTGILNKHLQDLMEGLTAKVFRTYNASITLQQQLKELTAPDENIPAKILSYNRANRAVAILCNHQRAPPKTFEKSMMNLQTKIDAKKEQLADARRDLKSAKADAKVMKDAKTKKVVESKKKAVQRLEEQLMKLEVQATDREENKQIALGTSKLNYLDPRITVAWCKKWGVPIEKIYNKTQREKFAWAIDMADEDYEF
Method: The human topoisomerase I relaxation assay was performed as reported in [86]. Shortly, the recombinant human topo I (TopoGEN, Port Orange, FL, USA) was incubated with the super-coiled pHOT1, in the presence or not of the tested compounds, at the indicated concentrations. The reaction products were then allowed to separate through the agarose gel electrophoresis, and ethidium bromide-stained DNA was visualized under UV light.

[3] = system: Klebsiella pneumoniae (ATCC 13883); assay: MIC/MBC broth dilution; assay type: cell-based
Method: (§2) The bacterial strains used for MIC and MBC value determinations expressed as µg/mL by the broth dilution method, according to CLSI guidelines, were the following:
(§3) -4 Gram-negative: Escherichia coli (ATCC® 25922^TM) and Klebsiella pneumoniae (ATCC® 13883^TM);
(§4) Increasing concentrations of the complexes (50, 70, 100, 150, and 200 µg/mL) were incubated with bacteria plated in 96-well microplates at 37 °C overnight as already reported, and then bacterial growth was checked at a wavelength of 600 nm using a Multiskan spectrophotometer (model Multiskan Ex Microplate; Thermo Scientific, Nyon, Switzerland). MIC or MBC values were obtained by comparing cell density with a positive control (bacterial cells grown in LB medium were added with only the vehicle, DMSO). The results were representative of three independent experiments performed in triplicate. Ampicillin, Gentamicin, and Cephalosporin (Sigma Aldrich A9393) were used as the control for strain sensitivity.

[4] = system: Escherichia coli (ATCC 25922); assay: MIC/MBC broth dilution; assay type: cell-based
Method: as §2, §3, §4

[5] = system: ROS production in BALB/3T3 fibroblasts; assay: Intracellular ROS detection with DCFH2-DA; assay type: cell-based, murine; conditions: 25 µM, 24 h pre-treatment
Method: In vitro detection of intracellular ROS on fibroblasts BALB/3T3 using DCFH2-DA The assay to evaluate the in vitro antioxidant activity was carried out using the murine BALB/3T3 fibroblasts that were plated in a white 96 MW and then treated with the complexes at a concentration of 25 µM for 24 h. Menadione (25 µM) was then added for 15 min to induce ROS production. After treatment, the cells were washed with PBS and treated with 25 μM 2′-7′-dichlorofluorescein diacetate (DCFH2-DA, Sigma-Aldrich, St. Louis, MO, USA), and then they were incubated for 40 min at 37 °C and 5% CO2. The probe DCFH2-DA penetrates cells where it is […] into a non-fluorescent form (DCFH2) by endogenous esterases. In the presence of intracellular ROS, non-fluorescent H2DCF is oxidized to the fluorescent 2′,7′-dichlorofluorescein (DCF). Then, the cells were washed with PBS and the fluorescence was detected using a multiplate reader (λex = 485 nm, λem = 535 nm). Based on the obtained fluorescence values, the ROS production inhibition % (IROS) vs. menadione was calculated using the following formula:(1) IROS vs. Menadione (%)=FMen−FSample/FMen∗100 where FMen represents the mean fluorescence obtained after treatment with menadione alone and Fsample represents the mean fluorescence obtained after the co-treatment with the complexes and menadione.

[6] = system: TNF-α expression in MDA-MB-231 cells; assay: Immunofluorescence, TNF-α expression; assay type: cell-based, human; conditions: 15 µM, 24 h
Method: as §1

[7] = system: Pseudomonas aeruginosa (ATCC 15442); assay: MIC/MBC broth dilution; assay type: cell-based
Method: as §2
as §4, with “The results were representative of three independent experiments performed in triplicate.” left out

[8] = system: Salmonella typhimurium (ATCC 14028); assay: MIC/MBC broth dilution; assay type: cell-based
Method: as §2
as §4, with “The results were representative of three independent experiments performed in triplicate.” left out

- Inhibition of hTopo I supercoil relaxing activity [2]: totally inhibited
SMILES: CC(=O)[O][Ag-][c]1n(C)c2c(c(=O)n(C)c(=O)n2C)[n+]1C1CCCCC1O (stereo not drawn) [AgL2OAc, 1,3,7-Trimethylxanthin-9-[cyclohexan-2-ol-8-ylidene]Ag(I) Acetate]
- NF-κB intracellular localization [1]: prevalently located in the cytoplasm
- M.B.C. K. pneumoniae [3]: > 150 µg/mL
- M.I.C. K. pneumoniae [3]: 125 µg/mL
- M.B.C. E. coli [4]: > 150 µg/mL
- M.I.C. E. coli [4]: 100 µg/mL
- ROS level reduction vs. menadione [5]: ~59%
- Reduction in TNF-α expression (fluorescence quantification) [6]: ~50%
- M.B.C. P. aeruginosa [7]: > 125 µg/mL
- M.I.C. P. aeruginosa [7]: 100 µg/mL
- M.B.C. S. typhimurium [8]: > 200 µg/mL
- M.I.C. S. typhimurium [8]: 150 µg/mL

- Inhibition of hTopo I supercoil relaxing activity [2]: totally inhibited
SMILES: Cn1c(=O)c2c(n(C)[c]([Au-][I])[n+]2CC(O)c2ccccc2)n(C)c1=O (racemic) [AuL1, 1,3,7-Trimethylxanthin-9-[(2-hydroxy-2-phenyl)ethyl-8-ylidene]Au(I) Iodide]
- NF-κB intracellular localization [1]: prevalently located in the cytoplasm
- M.B.C. K. pneumoniae [3]: > 200 µg/mL
- M.I.C. K. pneumoniae [3]: 150 µg/mL
- M.B.C. E. coli [4]: > 200 µg/mL
- M.I.C. E. coli [4]: 150 µg/mL
- ROS level reduction vs. menadione [5]: approximately 69%
- Reduction in TNF-α expression (fluorescence quantification) [6]: about 60%
- M.B.C. P. aeruginosa [7]: > 125 µg/mL
- M.I.C. P. aeruginosa [7]: 100 µg/mL
- M.B.C. S. typhimurium [8]: > 200 µg/mL
- M.I.C. S. typhimurium [8]: 150 µg/mL

Reference: paper PMC10931745 (International Journal of Molecular Sciences, 2024)
